Common to all, as to type: cell-based
Assay [1] concerns HL-60 cells. In words: Cellular differentiation of HL-60, fast scan time course. The note with it: 400 ng/ml PMA, fast scan. As to the method: (§1) Fast scan analysis was also performed on HL-60 cells that were treated with PMA and DMSO. A time course evaluation of PMA treated HL-60 cells was performed with fast scan data taken at 16 hours, 24 hours, 40 hours, and 72 hours post-treatment with 400 ng/ml PMA. A control sample of HL-60 cells was also tested using EtOH as the vehicle for purposes of comparing the differentiated cells with the undifferentiated HL-60 cells. The PMA-treated and control cells were harvested and trypsinized. The samples were then resuspended in PBS/1% BSA. A set of samples was also obtained and left as pellets at 4° C. for subsequent FACS analysis.
A time course evaluation of DMSO treated HL-60 cells was performed with fast scan data taken at 16 hours, 24 hours, 40 hours, and 70 hours post-treatment with 1% DMSO. A control sample of HL-60 cells was also tested for purposes of comparing the differentiated cells with the undifferentiated HL-60 cells. The DMSO-treated and control cells were then harvested and resuspended in PBS/1% BSA. A set of samples was also obtained and left as pellets at 4° C. for subsequent FACS analysis.

Assay [2] deals with CD11b expression in HL-60 cells. In words: FACS CD11b expression profile. The note with it: 400 ng/ml PMA. As to the method: as §1
FIG. 145 illustrates a histogram of the travel distance of the control cells as well as the PMA-treated cells at 16 hours, 24 hours, 40 hours, and 72 hours post-treatment. FIG. 146 illustrates the mean travel distances of the control cells as well as the PMA-treated cells at 16 hours, 24 hours, 40 hours, and 72 hours post-treatment. FIG. 147 illustrates the FACS CD11b expression profile in PMA-treated HL-60 cells as well as the control. CD11b is a known marker of cellular differentiation and is expressed on the surface of differentiating cells. […] The data illustrate that Optophoretic analysis can be used as an assay for the detection and quantification of cellular differentiation. […]

Assay [3] concerns HL-60 cells. In words: Cellular differentiation of HL-60, escape velocity. An excerpt:
HL-60 is a promyelocytic leukemia cell line that retains the capacity to undergo terminal differentiation and serves as a model system to study myeloid pathways of cellular differentiation. It is known that treatment of HL-60 cells with phorbol 12-myristate 13-acetate (PMA) causes the cells to differentiate into monocytes/macrophages. In addition, it is also known that treatment of HL-60 cells with dimethylsulfoxide (DMSO) causes these same cells to undergo granulocytic differentiation.
Initial tests were performed using HL-60 cells treated with PMA. HL-60 cells were seeded at about 1-3×10^6 cells per well in six well plates. The cells were treated with 200 ng/ml PMA while the control cells were treated with ethanol (EtOH) vehicle for four hours at 37° C. After incubation for four hours the treated cells were washed with PBS and re-fed with growth media. The treated HL-60 cells were then allowed to differentiate for 72 hours in normal growth media. After the 72 hour period, the untreated control cells were collected by centrifugation, washed with PBS and pelleted for resuspension at 1.5×10^6 cells/ml in PBS/1% BSA. Treated cells were trypsinized and collected by centrifugation then washed in PBS and pelleted for resuspension at 1×10^6 cells/ml in PBS/1% BSA. The cells were the subjected to Optophoretic analysis by measuring the escape velocities of the treated and control cells. Table 23 shown below illustrates the measured escape velocities of the undifferentiated and differentiated cells at 72 hours post treatment.

Structures are written as SMILES. “And” between values parts separate entries of the source, which are not always exact repeats. Equal values may be shown once.

For `CCCCCCCCCCCCCC(=O)O[C@@H]1[C@@H](C)[C@@]2(O)[C@@H](C=C(CO)C[C@]3(O)C(=O)C(C)=C[C@@H]23)[C@@H]2C(C)(C)[C@]12OC(C)=O` [PMA, phorbol 12 myristate 13-acetate], the “time after treatment at which Optophoretic analysis detected cellular differentiation into monocytes/macrophages” value in the assay with HL-60 cells [1] was ≤ 16 h. Further, the “time after treatment at which a noticeable change in CD11b expression levels was observed” value in assay [2] was “about 40 hours”. Also, the “escape velocity, Average” value in the assay on HL-60 cells [3] (HL-60 + PMA at 72 hours (differentiated), 200 ng/ml PMA for four hours) is given as 14.0 μm/sec. Moreover, the “Escape Velocity, individual cell” value in the assay with HL-60 cells [3] (HL-60 + PMA at 72 hours (differentiated), 200 ng/ml PMA for four hours, Cell No. 1 to 20) was 14.0 μm/sec (3×) and 12.5 μm/sec (3×) and 16.5 μm/sec and 14.5 μm/sec (3×) and 13.0 μm/sec (2×) and 13.5 μm/sec (2×) and 15.5 μm/sec (2×) and 15.0 μm/sec (2×) and 16.0 μm/sec and 11.0 μm/sec. Besides, the “increase in measured escape velocity as compared to the control cells” value with HL-60 cells [3] (HL-60 + PMA at 72 hours, on average) is on record as “about 2 μm/sec”.

The record behind these values is patent US20040121307A1, “Early detection of cellular differentiation using optophoresis” (Genoptix, Inc, priority 2002, published 2004).
